Laboratory results: US20070281992A1, “COMBINATION OF GYRASE B INHIBITORS AND PROTEIN SYNTHESIS INHIBITORS AND USES THEREOF” (priority 2006, published 2007)
Read-outs that look alike come from different tables or passages of the source.

How the values were obtained:
Format in all cases: cell-based
[1] = system: Unconfirmed Vancomycin-intermediate Staphylococcus epidermidis Isolates; experiment: MIC assay (NCCLS broth dilution), unconfirmed VISE isolates; conditions: for MIC: read-out: Minimal Inhibitory Concentration
Procedure: (§1) Antibiotics: novobiocin, tetracycline, minocycline, oxacillin, and vancomycin were all purchased from Sigma-Aldrich. Linezolid was obtained from Pfizer, Inc. Novobiocin/tetracycline and novobiocin/minocycline were tested in a 2.5:1 ratio to mimic the serum levels. (Vavra, J. J., 1967, Development of resistance to novobiocin, tetracycline, and novobiocin-tetracycline combinations in Staphylococcus aureus populations, J. Bacteriol 93(3):801). Compounds were tested across a concentration range consisting of 11 two-fold serial dilutions of test agent.
(§2) Stock solutions were prepared in sterile deionized water; novobiocin stock concentration was 1600 μg/mL and all other drugs stock solutions were prepared at 640 μg/mL. The stock solutions were allowed to sit at room temperature for one hour to auto-sterilize prior to use in the test. All compounds were in solution in water. The control agent was vancomycin hydrochloride, Sigma Chemical Lot # 015K0825.
(§3) The test organisms for the assay were 52 MSSA, 52 MRSA, 8 VISA, 7 VISE, and 3 LRSA isolates. Quality control strains included Staphylococcus aureus 0100 (ATCC 29213) and Enterococcus faecalis (ATCC 29212).
(§4) The MIC assay was performed according to published NCCLS guidelines. (National Committee for Clinical Laboratory Standards, Methods for Dilution Antimicrobial Susceptibility Tests for Bacteria that Grow Aerobically; Approved Standard-Sixth Edition, NCCLS Document M7-A6 [ISBN 1-56238-486-4], NCCLS, 940 West Valley Road, Suite 1400, Wayne, Pa. 19087-1898 USA, 2003). The test medium was Mueller Hinton II Broth for all organisms.

[2] = system: Methicillin-Resistant Staphylococcus aureus Isolates; experiment: MIC assay (NCCLS broth dilution), MRSA clinical isolates; conditions: for MIC: read-out: Minimal Inhibitory Concentration
Procedure: as §1, §2, §3, §4

[3] = system: Enterococcus faecalis (ATCC 29212); experiment: MIC assay, quality control strain E. faecalis ATCC 29212; conditions: ATCC29212, E. faecalis ATCC 29212, repeat runs 22FEB06-09MAR06, combinations at 2.5:1, read-out: Minimal Inhibitory Concentration, quality control
Procedure: as §1, §2, §3, §4

[4] = system: Vancomycin-intermediate Staphylococcus epidermidis Isolates; experiment: MIC assay (NCCLS broth dilution), VISE isolates; conditions: 4 VISE isolates; combinations at 2.5:1
Procedure: as §1, §2, §3, §4

[5] = Staphylococcus aureus, 52 MRSA isolates, combinations at 2.5:1, given as NB/partner

CO[C@@H]1[C@@H](OC(N)=O)[C@@H](O)[C@H](Oc2ccc3c(O)c(NC(=O)c4ccc(O)c(CC=C(C)C)c4)c(=O)oc3c2C)OC1(C)C [NB, novobiocin]
0.62 µg/mL: MIC ([2]; Staphylococcus aureus, MRSA isolate 1137, 22FEB06)
0.15 µg/mL: MIC ([2]; Staphylococcus aureus, MRSA isolate 758, 24FEB06) | MIC ([2]; Staphylococcus aureus, MRSA isolate 760, 24FEB06) | MIC ([2]; Staphylococcus aureus, MRSA isolate 765, 22FEB06) | MIC ([2]; Staphylococcus aureus, MRSA isolate 767, 22FEB06) | MIC ([2]; Staphylococcus aureus, MRSA isolate 768, 22FEB06) | MIC ([2]; Staphylococcus aureus, MRSA isolate 769, 22FEB06) | MIC ([2]; Staphylococcus aureus, MRSA isolate 772, 22FEB06) | MIC ([2]; Staphylococcus aureus, MRSA isolate 775, 24FEB06) | MIC ([2]; Staphylococcus aureus, MRSA isolate 776, 24FEB06) | MIC ([2]; Staphylococcus aureus, MRSA isolate 886, 24FEB06) | MIC ([2]; Staphylococcus aureus, MRSA isolate 888, 24FEB06) | MIC ([2]; Staphylococcus aureus, MRSA isolate 889, 24FEB06) | MIC ([2]; Staphylococcus aureus, MRSA isolate 1014, 22FEB06) | MIC ([2]; Staphylococcus aureus, MRSA isolate 1021, 22FEB06) | MIC ([2]; Staphylococcus aureus, MRSA isolate 1023, 22FEB06) | MIC ([2]; Staphylococcus aureus, MRSA isolate 1024, 22FEB06) | MIC ([2]; Staphylococcus aureus, MRSA isolate 1025, 22FEB06) | MIC ([2]; Staphylococcus aureus, MRSA isolate 1138, 22FEB06) | MIC ([2]; Staphylococcus aureus, MRSA isolate 1730, 24FEB06) | MIC ([2]; Staphylococcus aureus, MRSA isolate 2010, 24FEB06) | MIC ([2]; Staphylococcus aureus, MRSA isolate 2011, 24FEB06) | MIC50 [2, 5]
≦.04-.08 μg/ml: MIC Range [4]
0.31 µg/mL: MIC ([2]; Staphylococcus aureus, MRSA isolate 757, 24FEB06) | MIC ([2]; Staphylococcus aureus, MRSA isolate 773, 24FEB06) | MIC ([2]; Staphylococcus aureus, MRSA isolate 774, 24FEB06) | MIC ([2]; Staphylococcus aureus, MRSA isolate 1004, 24FEB06) | MIC ([2]; Staphylococcus aureus, MRSA isolate 1010, 22FEB06) | MIC ([2]; Staphylococcus aureus, MRSA isolate 1012, 22FEB06) | MIC ([2]; Staphylococcus aureus, MRSA isolate 1013, 22FEB06) | MIC ([2]; Staphylococcus aureus, MRSA isolate 1016, 22FEB06) | MIC ([2]; Staphylococcus aureus, MRSA isolate 1022, 22FEB06) | MIC ([2]; Staphylococcus aureus, MRSA isolate 1135, 22FEB06) | MIC ([2]; Staphylococcus aureus, MRSA isolate 1136, 22FEB06)
0.08 µg/mL: MIC ([2]; Staphylococcus aureus, MRSA isolate 758, 03MAR06) | MIC ([2]; Staphylococcus aureus, MRSA isolate 760, 03MAR06) | MIC ([2]; Staphylococcus aureus, MRSA isolate 763, 22FEB06) | MIC ([2]; Staphylococcus aureus, MRSA isolate 766, 22FEB06) | MIC ([2]; Staphylococcus aureus, MRSA isolate 771, 22FEB06) | MIC ([2]; Staphylococcus aureus, MRSA isolate 887, 24FEB06) | MIC ([2]; Staphylococcus aureus, MRSA isolate 1015, 22FEB06) | MIC ([2]; Staphylococcus aureus, MRSA isolate 1017, 22FEB06) | MIC ([2]; Staphylococcus aureus, MRSA isolate 1222, 03MAR06) | MIC ([2]; Staphylococcus aureus, MRSA isolate 1222, 24FEB06) | MIC ([2]; Staphylococcus aureus, MRSA isolate 1658, 03MAR06) | MIC ([2]; Staphylococcus aureus, MRSA isolate 1659, 03MAR06) | MIC ([2]; Staphylococcus aureus, MRSA isolate 1729, 03MAR06)
≦.04-.62 μg/ml: MIC Range ([2]; 52 MRSA isolates, combinations at 2.5:1, given as NB/partner)
5 µg/mL: MIC ([1]; Staphylococcus epidermidis, Unconfirmed VISE isolate 2024, 09MAR06) | MIC [3]
≦.04-5 μg/ml: MIC Range ([1]; 3 unconfirmed VISE isolates, combinations at 2.5:1)
≤ 0.04 µg/mL: MIC ([1]; Staphylococcus epidermidis, Unconfirmed VISE isolate 2026, 03MAR06) | MIC ([2]; Staphylococcus aureus, MRSA isolate 770, 22FEB06) | MIC ([2]; Staphylococcus aureus, MRSA isolate 777, 24FEB06) | MIC ([2]; Staphylococcus aureus, MRSA isolate 778, 24FEB06) | MIC ([2]; Staphylococcus aureus, MRSA isolate 1653, 03MAR06) | MIC ([2]; Staphylococcus aureus, MRSA isolate 1661, 03MAR06) | MIC ([2]; Staphylococcus aureus, MRSA isolate 2009, 24FEB06)
0.312 µg/mL: MIC ([1]; Staphylococcus epidermidis, Unconfirmed VISE isolate 2025, 09MAR06) | MIC50 ([1]; Staphylococcus epidermidis, 3 unconfirmed VISE isolates, combinations at 2.5:1) | MIC90 [2, 5]
